From article PMC6222781, “Structural Optimization of Foldamer-Dendrimer Conjugates as Multivalent Agents against the Toxic Effects of Amyloid Beta Oligomers” (Molecules : A Journal of Synthetic Chemistry and Natural …, 2018)

Key:
Aβ oligomers [1] = target: T1, Aβ oligomers (Homo sapiens, UniProt P05067); experiment: Sandwich ELISA binding of biotin-tagged conjugates to Aβ
T1 construct: Ser^26 depsipeptide iso-Aβ (1–42) was used; made in house; host or cells: chemical peptide synthesis (no expression host)
Description: To study the role of certain structure elements in the binding affinity, a set of new foldamer sequences were designed (Figure 2) and ligated to lysine-dendron scaffolds having a focal symmetry. This template with biotin affinity tag can be easily synthesized by solid phase peptide synthesis and immobilized on a streptavidin coated support such as the surface of the ELISA plate. Structural changes included fine-tuning the side-chain properties (2b–2d), changing the position of ionic residues (2e) and introducing bulky bicyclic side-chains (2f–2i).
The binding affinities of 2b–2i to Aβ oligomers were tested in ITC experiments. In such cases where the fitting failed due to low heat response or poor solubility, sandwich ELISA experiments were performed to enable the comparison of all conjugates (see Supporting Information for details).
The apparent dissociation constants for the complete set of new conjugates were calculated individually from the data of the ELISA experiments as well. Comparing the KD values of 2f–2i in this case, the replacement of ACHC to ABHC had only a minor effect on the Aβ binding. The cyclic β-amino acid ACHC not only provides the helical conformation of such a short foldamer but also protects the ionic residues from solvent upon binding due to its hydrophobicity.

Aβ oligomers [2] = target: T1, Aβ oligomers; experiment: Isothermal titration calorimetry (ITC) binding to Aβ oligomers; conditions: Table 2, PBS pH 7.4, 285 K; for Kd: Aβ 100 µM in cell, ligand 250 µM in syringe, two independent site model; for ΔG, first binding stage / ΔH, first binding stage / ΔG, second binding stage / ΔH, second binding stage: ITC
Procedure: The binding affinities of 2b–2i to Aβ oligomers were tested in ITC experiments.
In this work, Ser^26 depsipeptide iso-Aβ (1–42) was used, which was synthesized and purified as described previously. The lyophilized iso-Aβ (1–42) was dissolved in MilliQ water to a concentration of 1 mg mL^−1, sonicated for 3 min and the pH was set to 7.0 to initiate an O to N acyl migration, whereby the native sequence can be readily formed. The sample was incubated at room temperature for 10 min. Then the pH was set to 11 and the sample was kept at room temperature for additional 2 h. After the incubation, the Aβ stock solution was aliquoted and stored at −20 °C until use. To obtain Aβ oligomers, the 1 mg mL^−1 aliquot was diluted to a final concentration of 50 μM with 26.67 mM PBS and the pH was set to 7.4 with 1 M HCl. The sample was incubated at 37 °C for 3 h.
Isothermal calorimetric titrations were performed with a Microcal VP-ITC microcalorimeter in pH 7.4 PBS buffer solution. In individual titrations, 10 µL portions of the ligand containing solution were repeatedly injected from the computer-controlled 300-µL microsyringe at intervals of 300 s into the Aβ oligomer solution prepared in the same buffer as the ligand. All measurements were carried out at 285 K. The Aβ concentration in the cell was 100 µM and the total ligand concentration was 250 µM in the syringe and the titration was stopped when the precipitation of the Aβ aggregates became excessive. Control experiments were performed by injecting the ligand into a cell containing buffer with no target, and the heats of dilution were subtracted from those measured in the presence of Aβ. The experimental data were fitted to the two independent site binding models by using a nonlinear least-squares procedure, with ΔHb, ΔHb’, Kd, Kd’ ([…]), n and n’ (number of binding sites for monomer), as adjustable parameters.

T1 sequence (P05067 672-713 limits assumed): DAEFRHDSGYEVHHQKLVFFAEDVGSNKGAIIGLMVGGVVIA

SMILES	Kd (Aβ oligomers [1]) [nM]	ΔG, first binding stage (Aβ oligomers [2]; first binding stage) [kcal/M]	ΔH, first binding stage (Aβ oligomers [2]; first binding stage) [kcal/M]	ΔG, second binding stage (Aβ oligomers [2]; second binding stage) [kcal/M]	ΔH, second binding stage (Aβ oligomers [2]; second binding stage) [kcal/M]	also measured
N=C(N)NCCC[C@H](NC(=O)[C@H]1CCCC[C@@H]1N)C(=O)N[C@H]1CCCC[C@@H]1C(=O)N[C@H]1CCCC[C@@H]1C(=O)N[C@@H](CC(=O)O)C(=O)N[C@H]1CCCC[C@@H]1C(=O)NCC(=O)NCC(=O)N[C@@H](CSC1CC(=O)N(CCC(=O)NCCCC[C@H](NC(=O)CCN2C(=O)CC(SC[C@H](NC(=O)CNC(=O)CNC(=O)[C@H]3CCCC[C@@H]3NC(=O)[C@H](CC(=O)O)NC(=O)[C@H]3CCCC[C@@H]3NC(=O)[C@H]3CCCC[C@@H]3NC(=O)[C@H](CCCNC(=N)N)NC(=O)[C@H]3CCCC[C@@H]3N)C(N)=O)C2=O)C(=O)NCCCC[C@H](NC(=O)[C@H](CCCCNC(=O)CCN2C(=O)CC(SC[C@H](NC(=O)CNC(=O)CNC(=O)[C@H]3CCCC[C@@H]3NC(=O)[C@H](CC(=O)O)NC(=O)[C@H]3CCCC[C@@H]3NC(=O)[C@H]3CCCC[C@@H]3NC(=O)[C@H](CCCNC(=N)N)NC(=O)[C@H]3CCCC[C@@H]3N)C(N)=O)C2=O)NC(=O)CCN2C(=O)CC(SC[C@H](NC(=O)CNC(=O)CNC(=O)[C@H]3CCCC[C@@H]3NC(=O)[C@H](CC(=O)O)NC(=O)[C@H]3CCCC[C@@H]3NC(=O)[C@H]3CCCC[C@@H]3NC(=O)[C@H](CCCNC(=N)N)NC(=O)[C@H]3CCCC[C@@H]3N)C(N)=O)C2=O)C(=O)N[C@@H](CCCCNC(=O)CCCC[C@@H]2SC[C@@H]3NC(=O)N[C@@H]32)C(N)=O)C1=O)C(N)=O (stereo partly drawn) [Compound 2d]	7.7 ± 3.06					
N=C(N)NCCC[C@@H](CC(=O)N[C@H]1CCCC[C@@H]1C(=O)N[C@@H](CC(=O)O)CC(=O)N[C@H]1CCCC[C@@H]1C(=O)NCC(=O)NCC(=O)N[C@@H](CSC1CC(=O)N(CCC(=O)NCCCC[C@H](NC(=O)CCN2C(=O)CC(SC[C@H](NC(=O)CNC(=O)CNC(=O)[C@H]3CCCC[C@@H]3NC(=O)C[C@H](CC(=O)O)NC(=O)[C@H]3CCCC[C@@H]3NC(=O)C[C@H](CCCNC(=N)N)NC(=O)[C@H]3CCCC[C@@H]3NC(=O)[C@H]3CCCC[C@@H]3N)C(N)=O)C2=O)C(=O)NCCCC[C@H](NC(=O)[C@H](CCCCNC(=O)CCN2C(=O)CC(SC[C@H](NC(=O)CNC(=O)CNC(=O)[C@H]3CCCC[C@@H]3NC(=O)C[C@H](CC(=O)O)NC(=O)[C@H]3CCCC[C@@H]3NC(=O)C[C@H](CCCNC(=N)N)NC(=O)[C@H]3CCCC[C@@H]3NC(=O)[C@H]3CCCC[C@@H]3N)C(N)=O)C2=O)NC(=O)CCN2C(=O)CC(SC[C@H](NC(=O)CNC(=O)CNC(=O)[C@H]3CCCC[C@@H]3NC(=O)C[C@H](CC(=O)O)NC(=O)[C@H]3CCCC[C@@H]3NC(=O)C[C@H](CCCNC(=N)N)NC(=O)[C@H]3CCCC[C@@H]3NC(=O)[C@H]3CCCC[C@@H]3N)C(N)=O)C2=O)C(=O)N[C@@H](CCCCNC(=O)CCCC[C@@H]2SC[C@@H]3NC(=O)N[C@@H]32)C(N)=O)C1=O)C(N)=O)NC(=O)[C@H]1CCCC[C@@H]1NC(=O)[C@H]1CCCC[C@@H]1N (stereo partly drawn) [Compound 2e]	2.71 ± 0.21					
N=C(N)NCCC[C@@H](CC(=O)N[C@H]1CCCC[C@@H]1C(=O)N[C@H]1CCCC[C@@H]1C(=O)N[C@@H](CC(=O)O)CC(=O)N[C@H]1CCCC[C@@H]1C(=O)NCC(=O)NCC(=O)N[C@@H](CSC1CC(=O)N(CCC(=O)NCCCC[C@H](NC(=O)CCN2C(=O)CC(SC[C@H](NC(=O)CNC(=O)CNC(=O)[C@H]3CCCC[C@@H]3NC(=O)C[C@H](CC(=O)O)NC(=O)[C@H]3CCCC[C@@H]3NC(=O)[C@H]3CCCC[C@@H]3NC(=O)C[C@H](CCCNC(=N)N)NC(=O)[C@H]3CCCC[C@@H]3N)C(N)=O)C2=O)C(=O)NCCCC[C@H](NC(=O)[C@H](CCCCNC(=O)CCN2C(=O)CC(SC[C@H](NC(=O)CNC(=O)CNC(=O)[C@H]3CCCC[C@@H]3NC(=O)C[C@H](CC(=O)O)NC(=O)[C@H]3CCCC[C@@H]3NC(=O)[C@H]3CCCC[C@@H]3NC(=O)C[C@H](CCCNC(=N)N)NC(=O)[C@H]3CCCC[C@@H]3N)C(N)=O)C2=O)NC(=O)CCN2C(=O)CC(SC[C@H](NC(=O)CNC(=O)CNC(=O)[C@H]3CCCC[C@@H]3NC(=O)C[C@H](CC(=O)O)NC(=O)[C@H]3CCCC[C@@H]3NC(=O)[C@H]3CCCC[C@@H]3NC(=O)C[C@H](CCCNC(=N)N)NC(=O)[C@H]3CCCC[C@@H]3N)C(N)=O)C2=O)C(=O)NCC(N)=O)C1=O)C(N)=O)NC(=O)[C@H]1CCCC[C@@H]1N (stereo partly drawn) [Compound 7]						Kd (Aβ oligomers [2]; first binding stage): 16.2 ± 8.9 nM; Kd (Aβ oligomers [2]; second binding stage): 128 ± 56.7 nM
CC(=O)N[C@@H](CCCCNC(=O)CCN1C(=O)CC(SC[C@H](NC(=O)CNC(=O)CNC(=O)[C@H]2CCCC[C@@H]2NC(=O)C[C@H](CC(=O)O)NC(=O)[C@H]2CCCC[C@@H]2NC(=O)[C@H]2CCCC[C@@H]2NC(=O)C[C@H](CCCNC(=N)N)NC(=O)[C@H]2CCCC[C@@H]2N)C(N)=O)C1=O)C(=O)NCC(=O)N[C@@H](CCCCNC(=O)CCN1C(=O)CC(SC[C@H](NC(=O)CNC(=O)CNC(=O)[C@H]2CCCC[C@@H]2NC(=O)C[C@H](CC(=O)O)NC(=O)[C@H]2CCCC[C@@H]2NC(=O)[C@H]2CCCC[C@@H]2NC(=O)C[C@H](CCCNC(=N)N)NC(=O)[C@H]2CCCC[C@@H]2N)C(N)=O)C1=O)C(=O)NCC(=O)N[C@@H](CCCCNC(=O)CCN1C(=O)CC(SC[C@H](NC(=O)CNC(=O)CNC(=O)[C@H]2CCCC[C@@H]2NC(=O)C[C@H](CC(=O)O)NC(=O)[C@H]2CCCC[C@@H]2NC(=O)[C@H]2CCCC[C@@H]2NC(=O)C[C@H](CCCNC(=N)N)NC(=O)[C@H]2CCCC[C@@H]2N)C(N)=O)C1=O)C(=O)NCC(=O)N[C@@H](CCCCNC(=O)CCN1C(=O)CC(SC[C@H](NC(=O)CNC(=O)CNC(=O)[C@H]2CCCC[C@@H]2NC(=O)C[C@H](CC(=O)O)NC(=O)[C@H]2CCCC[C@@H]2NC(=O)[C@H]2CCCC[C@@H]2NC(=O)C[C@H](CCCNC(=N)N)NC(=O)[C@H]2CCCC[C@@H]2N)C(N)=O)C1=O)C(N)=O (stereo partly drawn) [Compound 8]		-11.07	2.31	-8.48	0.51	
N=C(N)NCCC[C@@H](CC(=O)N[C@H]1CCCC[C@@H]1C(=O)N[C@H]1CCCC[C@@H]1C(=O)N[C@@H](CC(=O)O)CC(=O)N[C@H]1CCCC[C@@H]1C(=O)NCC(=O)NCC(=O)N[C@@H](CSSC[C@H](NC(=O)CNC(=O)CNC(=O)[C@H]1CCCC[C@@H]1NC(=O)C[C@H](CC(=O)O)NC(=O)[C@H]1CCCC[C@@H]1NC(=O)[C@H]1CCCC[C@@H]1NC(=O)C[C@H](CCCNC(=N)N)NC(=O)[C@H]1CCCC[C@@H]1NC(=O)CCC(=O)NCCOCCOCCNC(=O)[C@H]1CCCC[C@@H]1NC(=O)C[C@H](CC(=O)O)NC(=O)[C@H]1CCCC[C@@H]1NC(=O)[C@H]1CCCC[C@@H]1NC(=O)C[C@H](CCCNC(=N)N)NC(=O)[C@H]1CCCC[C@@H]1N)C(N)=O)C(N)=O)NC(=O)[C@H]1CCCC[C@@H]1NC(=O)CCC(=O)NCCOCCOCCNC(=O)[C@H]1CCCC[C@@H]1NC(=O)C[C@H](CC(=O)O)NC(=O)[C@H]1CCCC[C@@H]1NC(=O)[C@H]1CCCC[C@@H]1NC(=O)C[C@H](CCCNC(=N)N)NC(=O)[C@H]1CCCC[C@@H]1N [Compound 9]		-9.83	6.01	-8.48	1.18	
